# Patent US11421145B2, “Oil recovery methods using a formulation containing an unsaturated zwitterionic surfactant and a polymer” (King Fahd University of Petroleum and Minerals, priority 2019, dated 2022)
# Assay: Solubility and compatibility in seawater (SW) and formation water (FW)
# Type: physicochemical
# Conditions: seawater and formation water
# Description: Synthetic seawater (SW) and formation water (FW) were prepared using NaCl, Na2SO4, NaHCO3, CaCl2, and MgCl2. All the salts were obtained from Sigma-Aldrich, USA.
# Solubility and compatibility of the surfactant in the reservoir and injection brine are the primary considerations for further evaluation of the unsaturated surfactant for EOR application. If the surfactant is not soluble in the seawater and formation brine, it can be rejected at the initial stage. […] After the compatibility test with SW and FW, the short-term thermal stability of the synthesized unsaturated surfactant was evaluated using TGA analysis. […] Only 3% weight loss was observed up to 200° C., which was mainly associated with solvent and water evaporation. […] TGA results helped to identify and eliminate the surfactants that had lower decomposition temperatures. However, for real field applications, long-term thermal stability of the surfactant must be considered, as the surfactant residence time in the reservoir could vary from a few days to a few months.
compound,measurement,value
"CCCCCCCCCCCCCCCCCC(=O)NCCC[N+](C)(C)CCCS(=O)(=O)[O-] [3-(N-stearamidopropyl-N,N-dimethylammonium)propanesulfonate, reference compound]",solubility in SW and FW,poor solubility
